One may read the EC50 as the concentration at which the effect is half-maximal.

Assay [1] concerns the target T1, AR (Homo sapiens, UniProt P10275).
T1 sequence (P10275 1-920 Q868H): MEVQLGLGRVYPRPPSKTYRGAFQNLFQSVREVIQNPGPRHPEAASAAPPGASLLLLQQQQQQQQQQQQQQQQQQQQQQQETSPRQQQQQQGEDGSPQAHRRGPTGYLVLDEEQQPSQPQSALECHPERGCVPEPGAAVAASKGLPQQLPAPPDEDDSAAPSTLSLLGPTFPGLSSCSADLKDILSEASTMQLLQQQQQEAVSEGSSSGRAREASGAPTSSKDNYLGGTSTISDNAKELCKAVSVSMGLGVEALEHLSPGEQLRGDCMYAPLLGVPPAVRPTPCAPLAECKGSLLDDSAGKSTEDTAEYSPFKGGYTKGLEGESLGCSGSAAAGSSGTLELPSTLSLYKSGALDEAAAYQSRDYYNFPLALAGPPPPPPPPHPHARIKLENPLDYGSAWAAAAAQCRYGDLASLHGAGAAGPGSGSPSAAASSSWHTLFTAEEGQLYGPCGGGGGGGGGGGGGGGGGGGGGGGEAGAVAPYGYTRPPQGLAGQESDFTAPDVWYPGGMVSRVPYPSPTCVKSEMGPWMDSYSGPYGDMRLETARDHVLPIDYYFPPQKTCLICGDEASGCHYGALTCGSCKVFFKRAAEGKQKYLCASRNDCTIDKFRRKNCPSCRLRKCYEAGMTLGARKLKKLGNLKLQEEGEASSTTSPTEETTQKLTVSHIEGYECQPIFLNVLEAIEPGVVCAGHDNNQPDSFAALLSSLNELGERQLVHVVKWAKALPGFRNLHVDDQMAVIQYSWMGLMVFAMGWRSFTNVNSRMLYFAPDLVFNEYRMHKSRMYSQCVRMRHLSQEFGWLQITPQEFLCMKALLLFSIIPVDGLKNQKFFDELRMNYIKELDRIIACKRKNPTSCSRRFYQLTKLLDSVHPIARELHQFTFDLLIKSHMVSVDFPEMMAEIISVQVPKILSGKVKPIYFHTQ
In words: AR agonism assay in MDA-MB-453 ARE-luc reporter cells in the presence of pomalidomide. The class given is cell-based. The note with it: MDA-MB-453 AR luciferase reporter, with pomalidomide. The procedure: The AR Responsive Luciferase Reporter MDA-MB-453 Stable Cell Line (MDA-MB-453 ARE-luc) was utilized for the AR agonism assay. These cells constitutively express the firefly luciferase reporter gene under the control of the androgen receptor response element. MDA-MB-453 ARE-luc cells were cultured in RPMI media (Thermo Fisher Scientific) supplemented with 5% charcoal-Dextran treated fetal bovine serum and were maintained at 37° C. in a 5% CO2 incubator. On day 0, the cells were seeded in 96-well plates at a density of 5×10^6 cells per plate. To prevent serum androgen interference during the AR agonism assay, the cells were cultured in phenol-free RPMI media without FBS. On day 1, the cells were treated with the compounds to establish concentration-response curves (CRCs). The compounds were administered at a top concentration of 300 nM with half-log dilutions. The synthetic AR agonist R1881 served as a positive control, with a top concentration of 30 nM and half-log dilutions. E3 ligase inhibitor pomalidomide was included in each well alongside the compounds at a concentration tenfold higher than that of the treated compounds. On day 2, the culture medium was removed, and luminescence data were obtained using the Bright Glo Assay (Promega, Catalog No. E2620) with 50 μL of Bright Glo buffer per well. Luminescence signals were recorded using a plate reader, and the agonism effect was calculated as a percentage using the formula: Agonism effect (%)=(Luminescence signal of compound/Maximum signal of R1881 at 30 nM)*100.
(In general: A reporter such as luciferase makes a cellular process visible.)

Assay [2] concerns the target T2, endogenous mouse AR (Mus musculus, UniProt P19091).
T2 construct: from tissue; host or cells: mouse LABC muscle (C57Bl/6 and hAR100Q mice); quadriceps (hAR100Q mice)
T2 sequence (P19091 1-899): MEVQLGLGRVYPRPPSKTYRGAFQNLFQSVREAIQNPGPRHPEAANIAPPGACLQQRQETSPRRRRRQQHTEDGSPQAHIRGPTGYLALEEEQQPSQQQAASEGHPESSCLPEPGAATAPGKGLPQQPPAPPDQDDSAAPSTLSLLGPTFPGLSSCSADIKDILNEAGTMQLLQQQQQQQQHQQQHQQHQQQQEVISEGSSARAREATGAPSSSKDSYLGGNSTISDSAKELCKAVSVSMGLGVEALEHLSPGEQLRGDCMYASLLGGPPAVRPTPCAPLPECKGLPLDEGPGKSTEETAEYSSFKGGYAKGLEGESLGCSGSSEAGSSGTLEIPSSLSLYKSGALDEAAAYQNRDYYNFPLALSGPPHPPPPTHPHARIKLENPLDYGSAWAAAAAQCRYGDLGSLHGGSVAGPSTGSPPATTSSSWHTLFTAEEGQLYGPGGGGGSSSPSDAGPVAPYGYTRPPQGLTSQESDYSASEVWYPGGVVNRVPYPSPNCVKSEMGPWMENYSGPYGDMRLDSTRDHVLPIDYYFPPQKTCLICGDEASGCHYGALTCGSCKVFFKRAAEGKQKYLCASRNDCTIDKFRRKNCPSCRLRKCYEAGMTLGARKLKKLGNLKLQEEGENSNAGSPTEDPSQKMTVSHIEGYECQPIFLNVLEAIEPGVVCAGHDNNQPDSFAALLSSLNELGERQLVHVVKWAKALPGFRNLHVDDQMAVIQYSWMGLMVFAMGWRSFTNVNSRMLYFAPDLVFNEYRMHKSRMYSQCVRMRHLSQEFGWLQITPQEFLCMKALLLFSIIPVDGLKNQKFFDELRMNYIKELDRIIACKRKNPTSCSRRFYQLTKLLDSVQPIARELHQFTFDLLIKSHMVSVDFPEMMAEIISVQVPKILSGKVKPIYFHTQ
The experiment in a line: Endogenous mouse AR degradation in muscle of hAR100Q mice, capillary immunoassay. The class given is in vivo. The procedure: Mouse endogenous AR, human AR100Q, and high molecular weight hAR100Q from hAR100Q mice were quantified by capillary immunoassay. Tissue lysates were prepared as described above using antibodies to AR and resolved by capillary electrophoresis (ProteinSimple). High molecular weight AR was quantified as the area under the curve (AUC) from 300 to 600 kDa.
A parallel cohort of hAR100Q mice was maintained in order to evaluate AR degradation at the 11-week timepoint. hAR100Q mice in this tissue cohort were fed chow identical to the mice that underwent muscle strength and endurance tests and were euthanized at 11-weeks of age.

In assay [3] the target is T3, PDE6D (Homo sapiens, UniProt O43924).
T3 construct: endogenous in cells; host or cells: SBMA hiPSC-derived myotubes
In words: Global proteomics / Western blot in SBMA hiPSC-myotubes: neosubstrate PDE6D. The format is cell-based. The following applies: hiPSC-myotubes, data not shown. From the text: (FIG. 12A). […] (FIG. 12C).

T3 sequence (O43924 whole entry): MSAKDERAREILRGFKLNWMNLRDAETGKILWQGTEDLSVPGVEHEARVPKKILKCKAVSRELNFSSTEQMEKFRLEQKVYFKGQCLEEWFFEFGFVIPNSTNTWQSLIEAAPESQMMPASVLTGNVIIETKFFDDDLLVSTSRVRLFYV

Turning to `CC(C)N(CC1CCN(c2ncc(C(=O)N[C@H]3C(C)(C)[C@H](Oc4ccc(C#N)c(Cl)c4)C3(C)C)cn2)CC1)[C@H]1C[C@H](Oc2ccc3c(c2)C(=O)N(C2CCC(=O)NC2=O)C3=O)C1` (some centres unmarked) [Compound A, N-((1r,3r)-3-(3-chloro-4-cyanophenoxy)-2,2,4,4-tetramethylcyclobutyl)-2-(4-((((1r,3r)-3-((2-(2,6-dioxopiperidin-3-yl)-1,3-dioxoisoindolin-5-yl)oxy)cyclobutyl)(isopropyl)amino)methyl)piperidin-1-yl)pyrimidine-5-carboxamide], the “agonism activity at Emax relative to R1881” value in assay [1] was under 40%. Further, the EC50 in assay [1] (read-out: EC50, AR agonist activity) stood at 69 nM. For the same compound, the “reduction of endogenous mouse (WT) AR in LABC vs vehicle” value in assay [2] (LABC, 11 weeks of age, chow approx. 15 mg/kg) is listed as 77%. Also, in assay [2] (quadriceps), the “reduction of WT AR in quadriceps vs vehicle” value came out at 65%. The “reduction of PDE6D by Western blot” value in assay [3] is listed as about 50%.

The values above are taken from patent publication US12496301B2, “Use of androgen receptor degrader for the treatment of spinal and bulbar muscular atrophy” (Arvinas Operations, Inc., priority 2023, dated 2025).
